Measurements reported in patent US20110263509A1, “PREPARATION AND USE OF HIGH-PURITY HEMOPARATIDE (HPTH-1-37) FOR THE TREATMENT OF INFLAMMATORY SCALING DISEASES OF THE SKIN” (Haemopep Pharma GmbH, priority 2008, published 2011).

What was measured:
[1] = Solubility, dissolution time (specification); type: physicochemical
[2] = Storage stability of the lyophilized preparation at +4° C., HPLC comparison of fresh material and material stored nine months; type: physicochemical; conditions: lyophilized form
Text: FIGS. 4A and 4B disclose HPLC chromatograms of hPTH-1-37. […] FIG. 4B is a chromatogram of hPTH-1-37 stored for nine months. […] Further, FIG. 5 discloses a comparison between the HPLC chromatograms of freshly prepared hPTH-1-37 (A) and a commercially obtainable preparation.

[3] = Stability of the active ingredient in hydrophilic ointment (cream) formulation; type: physicochemical; conditions: hydrophilic ointment DAB base; except for methionine-oxidized metabolites
Text: In one embodiment of the invention, the hemoparatide (hPTH-1-37) or its derivatives are used for preparing a medicament in different galenic application forms, especially as a lyophilizate. In one embodiment of this medicament, a hydrophilic ointment, especially according to the German Pharmacopoeia, is used as a galenic application base. […] These oxidized metabolites also occur as natural PTH forms in the blood plasma, but can be avoided by working under a nitrogen atmosphere, and are free from side effects, being naturally occurring endogenous derivatives.
Hemoparatide was incorporated into this base in concentrations of 0.03% by weight, 0.1% by weight and 0.3% by weight.
These oxidized metabolites also occur as natural PTH forms in the blood plasma, but can be avoided by working under a nitrogen atmosphere, and are free from side effects, being naturally occurring endogenous derivatives.

[4] = Phase I trial, tolerability of subcutaneous injection in aqueous solution; type: in vivo; conditions: humans

SMILES: CC[C@H](C)[C@H](NC(=O)[C@H](CCC(=O)O)NC(=O)[C@H](CO)NC(=O)[C@@H](NC(=O)[C@@H](N)CO)C(C)C)C(=O)N[C@@H](CCC(N)=O)C(=O)N[C@@H](CC(C)C)C(=O)N[C@@H](CCSC)C(=O)N[C@@H](Cc1c[nH]cn1)C(=O)N[C@@H](CC(N)=O)C(=O)N[C@@H](CC(C)C)C(=O)NCC(=O)N[C@@H](CCCCN)C(=O)N[C@@H](Cc1c[nH]cn1)C(=O)N[C@@H](CC(C)C)C(=O)N[C@@H](CC(N)=O)C(=O)N[C@@H](CO)C(=O)N[C@@H](CCSC)C(=O)N[C@@H](CCC(=O)O)C(=O)N[C@@H](CCCNC(=N)N)C(=O)N[C@H](C(=O)N[C@@H](CCC(=O)O)C(=O)N[C@@H](Cc1c[nH]c2ccccc12)C(=O)N[C@@H](CC(C)C)C(=O)N[C@@H](CCCNC(=N)N)C(=O)N[C@@H](CCCCN)C(=O)N[C@@H](CCCCN)C(=O)N[C@@H](CC(C)C)C(=O)N[C@@H](CCC(N)=O)C(=O)N[C@@H](CC(=O)O)C(=O)N[C@H](C(=O)N[C@@H](Cc1c[nH]cn1)C(=O)N[C@@H](CC(N)=O)C(=O)N[C@@H](Cc1ccccc1)C(=O)N[C@H](C(=O)N[C@@H](C)C(=O)N[C@@H](CC(C)C)C(=O)O)C(C)C)C(C)C)C(C)C [hPTH-1-37]
- Solubility, dissolution time [1]: ≦2 min
- Methionine-oxidized metabolites after storage (stability) [2]: Only very small amounts of methionine-oxidized metabolites can be detected
- Stability of active ingredient in formulation [3]: very stable

SMILES: CC[C@H](C)[C@H](NC(=O)[C@H](CCC(=O)O)NC(=O)[C@H](CO)NC(=O)[C@@H](NC(=O)[C@@H](N)CO)C(C)C)C(=O)N[C@@H](CCC(N)=O)C(=O)N[C@@H](CC(C)C)C(=O)N[C@@H](CCSC)C(=O)N[C@@H](Cc1c[nH]cn1)C(=O)N[C@@H](CC(N)=O)C(=O)N[C@@H](CC(C)C)C(=O)NCC(=O)N[C@@H](CCCCN)C(=O)N[C@@H](Cc1c[nH]cn1)C(=O)N[C@@H](CC(C)C)C(=O)N[C@@H](CC(N)=O)C(=O)N[C@@H](CO)C(=O)N[C@@H](CCSC)C(=O)N[C@@H](CCC(=O)O)C(=O)N[C@@H](CCCNC(=N)N)C(=O)N[C@H](C(=O)N[C@@H](CCC(=O)O)C(=O)N[C@@H](Cc1c[nH]c2ccccc12)C(=O)N[C@@H](CC(C)C)C(=O)N[C@@H](CCCNC(=N)N)C(=O)N[C@@H](CCCCN)C(=O)N[C@@H](CCCCN)C(=O)N[C@@H](CC(C)C)C(=O)N[C@@H](CCC(N)=O)C(=O)N[C@@H](CC(=O)O)C(=O)N[C@H](C(=O)N[C@@H](Cc1c[nH]cn1)C(=O)N[C@@H](CC(N)=O)C(=O)N[C@@H](Cc1ccccc1)C(=O)N[C@H](C(=O)N[C@@H](C)C(=O)N[C@@H](CC(C)C)C(=O)O)C(C)C)C(C)C)C(C)C [highly pure hemoparatide]
- Tolerability [4]: high tolerability
- Solubility, dissolution time [1]: ≦2 min
- Methionine-oxidized metabolites after storage (stability) [2]: only a small amount of methionine-oxidized metabolites appears
